“Also recorded” adds a separate entry of the source. Read-outs that look alike come from different tables or passages of the source.
What was measured:
[1] = Clinical symptoms of rats in metabolic model; format: in vivo, rat; conditions: SD rats, dose 0.05-0.5 mg/kg per Table 6
Experimental: (§1) Sprague-Dawley male rats (200 ± 20 g) were obtained from SPF (Beijing) Biotechnology Co., Ltd. (Beijing, China). The animals were housed under controlled environmental conditions: Temperature was maintained at 20–25 °C, humidity at 50 ± 10%, and a 12/12 h light/dark cycle was applied. They had ad libitum access to standard laboratory chow and filtered water. A two-week acclimatization period was provided before the experiments began. The 26 SC standards were prepared in normal saline at concentrations of 0.5 mg/mL, 0.1 mg/mL, and 0.05 mg/mL. Each rat was weighed before administration, and the injection dose was adjusted based on body weight. The dosing volume for each rat was maintained at approximately 200 µL.
(§2) 162 Sprague-Dawley (SD) rats were randomly divided into 27 groups, with six rats in each group. The control group received an injection of normal saline, while the remaining groups were injected with 26 different types of SCs. The dosage administered was determined based on pre-experimental results, specifically selecting the dose that produced the highest level of metabolites in the blood samples collected 1 h after tail vein injection at concentrations of 0.5 mg/kg, 0.1 mg/kg, and 0.05 mg/kg, as shown in Table 6. Subsequently, tail vein administration was conducted at the specified dosage. The orbital venous blood was taken from the outer canthus of the rat with capillaries at 15 min and 1 h. Feces were collected after the blood. The rats were then sacrificed, and their brains and livers were dissected. Samples were immediately frozen in liquid nitrogen and stored at −80 °C until analysis.

[2] = Human liver microsomal incubation (in vitro metabolic model); conditions: for Conversion Rate: HLM, 37 °C 1 h, then UDPGA 30 min, peak area of parent in experimental group vs degradation control group; for most prevalent Phase II metabolic reaction / predominant Phase I metabolic reactions: human liver microsomal incubations
Experimental: Each of the 26 SCs was configured to 1 mg/mL with acetonitrile. The HLMs, NADPH regeneration solution A, regeneration solution B, and UDPGA solution were thawed at 4 °C. An icebox was prepared, and all additional steps were performed on ice. For this, 10 µL of NADPH regeneration solution A, 2 µL of regeneration solution B, 2 µL of SCs standard, and 10 µL of mixed human liver microsomes were added to 176 µL of 0.1 mol/L phosphate buffer. The mixture was mixed thoroughly and incubated at 37 °C for 1 h. Subsequently, 20 µL of UDPGA solution was added and mixed well, followed by an additional incubation for 30 min. The reaction was stopped by adding 200 µL of ice-cold acetonitrile. Additionally, the negative control group and the degradation control group were set up following the same procedure. […] The unadded components were supplemented with an equal amount of phosphate buffer. All samples were centrifuged at a high speed of 13,500 r for 10 min after reaction termination. The supernatant was collected and subsequently passed through a membrane filter (0.45 μm) prior to sampling.
The samples were separated and analyzed using a UHPLC-Q-Exactive Orbitrap MS system (Thermo Fisher Scientific, Waltham, MA, USA), which comprised a Thermo-Scientific™ Q-Exactive™(Thermo Fisher Scientific, Waltham, MA, USA) quadrupole electrostatic field orbitrap mass spectrometer coupled to a Vanquish ultrahigh-performance liquid chromatography (UHPLC) system (Thermo Fisher Scientific, Waltham, MA, USA) with a heated electrospray ionization HESI source in the positive ionization mode. The samples were separated on an ACQUITY UPLC BEH C18 Column (100 × 2.1 mm, 1.7 μm) with the column temperature maintained at 30 °C. The chromatographic separation was achieved using a gradient elution program with mobile phase A consisting of 0.1% formic acid in water and mobile phase B containing 0.1% formic acid in acetonitrile. The gradient profile was programmed as follows: Initial conditions were maintained at 5% B from 0 to 1 min, followed by a linear increase to 95% B from 1 to 11 min; the 95% B composition was held from 11 to 15.5 min, then decreased back to 5% B from 15.5 to 16 min, and finally maintained at 5% B from 16 to 18 min. The flow rate was set at 0.3 mL/min, and the injection volume was 10 μL for all analyses.
The following HESI source conditions were adopted: Acquisition mode was set to positive ion mode; the capillary temperature was maintained at 325 °C, the auxiliary gas heater temperature was set to 350 °C, and the spray voltage was applied at 3.7 kV. The mass spectrometry analysis was carried out in full-scan (FS) mode to trigger data-dependent acquisition in tandem mass spectrometry (FS-ddMS^2) mode. The FS data acquisition was performed using the following parameters: a resolution of 60,000, an automatic gain control (AGC) target of 1 × 10^6, a scan range of m/z 66.7–1000, and a maximum injection time (IT) of 250 ms. The ddMS^2 data acquisition was performed using the following parameters: a resolution of 30,000; an automatic gain control (AGC) target of 1 × 10^5; normalized collision energies (NCEs) of 20, 40, and 70 eV; and a maximum injection time (IT) of 50 ms.
Data acquisition was executed utilizing Xcalibur 4.3 software (Thermo Fisher Scientific, Waltham, MA, USA). The subsequent analysis of the acquired data was conducted using Thermo Fisher Scientific […] 3.2 software (Thermo Fisher Scientific, Waltham, MA, USA). The workflow’s nodes employed specific parameters: a mass tolerance of 5 ppm, a signal-to-noise threshold of 3, a minimum peak intensity of 1 × 10^5, a maximum peak width of 0.8 min, and a minimum of 3 scans per peak.

[3] = Metabolite identification, HLM incubation and rat model combined (UHPLC-Q-Exactive Orbitrap MS); set-up: species or system human; rat; conditions: for metabolite that was a common outcome in both models: HLM incubation and rat model; for Characteristic Metabolite: characteristic / defining metabolites by the screening criteria; for Number of Metabolites / Number of Phase I Metabolites / Number of Phase II Metabolites: in vitro (HLM) and in vivo (rat) models together
Experimental: as §1, §2
(§3) For blood samples, 0.5 mL of each sample was mixed with 1.0 mL of acetonitrile. For brain samples, 0.2 g of tissue was combined with 0.5 mL of acetonitrile. For liver samples, 0.5 g of tissue was mixed with 0.5 mL of acetonitrile. For feces samples, 0.2 g of sample was combined with 1 mL of acetonitrile-water (3:1) for grinding and homogenization. Each mixture was sonicated for 40 min, allowed to precipitate at 4 °C for 30 min, and then centrifuged at 13,500 rpm for 10 min. The supernatant was filtered using a syringe filter (0.45 μm) for further testing.

[4] = Rat metabolic model, metabolite identification; format: in vivo
Experimental: as §1, §2, §3

[5] = pooled HLM and real urine samples; cited from earlier work
[6] = set-up: method as in PMID 32678962; conditions: in vitro and in vivo systems; cited from earlier work
[7] = following human liver microsomal incubation

SMILES	Animal manifestations after tail vein drug injection [1]	Conversion Rate [2]	Phase II metabolites detected [2, 7]	metabolites detected [2, 7]	most prevalent Phase II metabolic reaction [2]	predominant Phase I metabolic reactions [2]	metabolite that was a common outcome in both models [3]	Characteristic Metabolite [3]	Number of Metabolites [3]	Number of Phase I Metabolites [3]	Number of Phase II Metabolites [3]	key Phase I metabolic reactions [4]	most significant Phase II metabolic processes [4]	Phase II metabolites identified ([4]; tail vein injection)	metabolic pathways associated ([4]; tail vein injection)	metabolites identified ([4]; tail vein injection)	further results
CCOC(=O)C(NC(=O)c1nn(CCCCCF)c2ccccc12)C(C)C (stereo not shown) [5F-EMB-PINACA]	irritable, with unstable gait and tachypnea; also recorded: hematuria	100.0%	one	eleven	glucuronidation	ester hydrolysis and hydroxylation	ester hydrolysis metabolite	ester hydrolysis, ester hydrolysis, hydroxylated, and oxidative defluorination metabolites; also recorded: Ester hydrolysis, oxidative defluorination, ester hydrolysis, and hydroxylated metabolites	23	19	4	oxidative defluorination and hydroxylation	sulfation and arginine binding reactions	3	eight	13	–
COC(=O)C(NC(=O)c1cn(CCCCCF)c2ccccc12)C(C)(C)C (stereo not shown) [5F-MDMB-PICA]	–	95.9%	two	fourteen	glucuronidation	ester hydrolysis and hydroxylation	oxidative defluorination metabolite	ester hydrolysis, de-N-alkylation, and oxidative defluorination metabolites; also recorded: Ester hydrolysis, de-N-alkyl side chain, and oxidative defluorination metabolite	25	18	7	oxidative defluorination and hydroxylation	sulfation and glycoside binding reactions	five	seven	twelve	most abundant stage I metabolites [5]: ester hydrolysis metabolites; Phase I metabolites detected [2, 7]: twelve; metabolic pathways involved [2, 7]: eight; Phase I metabolites identified ([4]; tail vein injection): seven
CC(C)(NC(=O)c1cn(CCCCCF)c2ncccc12)c1ccccc1 [CUMYL-5F-P7ICA]	–	–	–	–	–	–	–	–	–	–	–	–	–	–	–	–	Phase II metabolites detected [6]: sulfated and glucuronidated; most common Phase I reactions [6]: oxidative defluorination, monohydroxylation, ketone formation, and carboxylation
CC1(C)C(C(=O)c2cn(Cc3ccc(F)cc3)c3ccccc23)C1(C)C [FUB-144]	hematuria	30.4%	–	–	–	–	–	Ketogenic and hydroxylated, hydroxylated, and dehydrogenated metabolites	18	11	7	–	–	–	–	–	–
CCCCCn1cc(C(=O)c2ccc3ccccc3c2)cc1-c1ccccc1C [JWH-370]	syncope	42.0%	–	–	–	–	–	Dihydrodiol, hydroxylated, and de-N-alkyl side chain metabolites	14	9	5	–	–	–	–	–	–

Reference: PMC12250893, “Systematic Characterization of In Vitro and In Vivo Metabolic Pathways and Identification of Novel Biomarkers of 26 Synthetic Cannabinoids” (Molecules, 2025)
